Experimental data reported in US20260055431A1, “METHODS OF DELIVERING COMPONENTS TO MICROORGANOSPHERES” (Xilis, Inc., priority 2022, published 2026).
“Also recorded” adds a separate entry of the source. Where two headings read alike, the source gives them in different places.

Tests used:
[1] = system: MOSs derived from multiple myeloma (MM) bone marrow biopsies; assay: Multiple myeloma MOS apoptosis assay, Caspase 3/7 green dye, Incucyte imaging; type: cell-based, human; conditions: imaged every 2 hours for 4 days
Method: FIGS. 36A and 36B show the efficacy of Lenalidomide and Bortezoid on MOSs derived from multiple myeloma (MM) bone marrow biopsies. MM MOSs (on day 11) were treated with Lenalidomine (5 uM) or Bortezoid (2 nM). Caspase 3/7 green dye was added in the assay to monitor apoptosis. Incucyte images were taken every 2 hours for 4 days. […] If this test were run on, for example, traditional bulk organoids, the results would not be reliable (due to the lack of patient immune cells) leading to uncertainty in the best course of action for patient treatment.

[2] = system: MOSs generated from biopsy material; assay: Drug effect screen on MOSs from biopsy material (Example 3); type: cell-based, human; conditions: Example 3 patient biopsy
Method: (§1) In a similar set of experiments, MOSs were generated from biopsy material (FIG. 23A), and a drug effect screen was performed using the resulting MOSs. […] Thus, the MOSs correlated strongly with patient response to the standard of care drugs. In this case, the patient endured six months of side effects and toxicities that may have been avoided by the predicted response from the MOSs, indicating (within 7-10 days from the biopsy) that the tumor would not respond to these drugs.

tumor [3] = assay: Patient response to standard of care drugs (Example 3); type: in vivo, human; conditions: patient treated with both Oxalipalatin and Irinotecan, after 6 months of treatment
Method: as §1

traditional cell line = assay: Traditional (2D) cell line dosed with drug; type: cell-based; conditions: all dose ranges examined
Excerpt: As mentioned above, the MOSs and methods of using them to screen for drug compositions may be used to accurately predict the response of a patient tumor to one or more drug therapies. […] For example, in FIG. 22A-22D, the MOSs, but not a cell line, was able to correlate with patient response.

[4] = system: tumor MOSs generated from a patient biopsy; assay: Drug screen on MOSs from patient biopsy (Example 2); type: cell-based, human; conditions: Example 2 patient biopsy
tumor [5] = assay: Actual tumor response of the patient to treatment (Example 2); type: in vivo, human; conditions: Example 2 patient, before vs post treatment
[6] = system: PDX19187 bulk organoids and MOSs; type: cell-based, human; conditions: cell viabilities measured after 3 days of treatment
Method: (§2) Organoids were formed from Patient Derived Xenograft cells (including the PDX240 cells described above and a second PDX cell line, PDX19187) and were compared with MOSs formed using the same cells. The organoids were formed using conventional techniques in which a large mass of MATRIGEL in a well or dish was seeded with cells and cultured until growth was confirmed. MOSs were generated from the traditional organoids.
(§3) Both traditional (“bulk”) organoids and the MOSs were then treated with the same drugs (e.g., Oxaliplatin or SN38) and cell viabilities were measured after 3 days of treatment.

[7] = system: PDX240 bulk organoids and MOSs; assay: Drug response of bulk organoids vs MOSs, cell viability, PDX240; type: cell-based, human; conditions: cell viabilities measured after 3 days of treatment
Excerpt: The MOSs may be formed from cell lines grown as part of a Patient Derived Xenograft (PDX). For example, FIGS. 28A-28D illustrate MOSs formed from cultured PDX240 cells. PDX240 cells are a Patient Derived Xenograft (PDX) tumor cell line (numbered 240 based on patient source) that were human tumors grown in immunodeficient mice (PDX) to form in vivo tumors. The xenograft tissue was extracted dissociated, and used to form MOSs as described above. In this example a single cell was included in each MOS as it was formed. […] With progressive time in culture, at least some of the MOSs show the cells dividing and forming structures.
as §2, §3

mouse liver MOSs = assay: Toxicity assay using mouse liver MOSs; type: cell-based; conditions: 10 mM
human liver MOSs = assay: Toxicity assay using human liver MOSs; type: cell-based; conditions: 10 mM
Excerpt: Similarly, FIGS. 34A-34B also show toxicity assays using human liver MOSs.

[8] = system: MOSs derived from a pulmonary tumor biopsy; assay: IO assay of pulmonary tumor MOSs, Annexin V apoptosis marker; type: cell-based, human
Method: IO assays of the MOSs for these pulmonary and renal tumor biopsies were prepared with an Annexin V marker to indicate cellular apoptosis. […] If this test were run on, for example, traditional bulk organoids, the results would not be meaningful (due to the lack of patient immune cells) leading to uncertainty in the best course of action for patient treatment,
IO assays of the MOSs for this pulmonary tumor biopsy were prepared with an Annexin V marker to indicate cellular apoptosis. […] If this test were run on, for example, traditional bulk organoids, the results would be less accurate (because ESK1 would not be able to reach its target) leading to uncertainty in the best course of action for patient treatment.
IO assays of the MOSs for this pulmonary tumor biopsy were prepared with an Annexin V marker to indicate cellular apoptosis and Cytolight Red dye to indicate tumor infiltrating lymphocytes (TILs). […] If this test were run on, for example, traditional bulk organoids, the results would be less accurate (due to the inability of PBMC to penetrate the traditional bulk organoids) leading to uncertainty in the best course of action for patient treatment.
This is an indication that TILs can penetrate MOS to kill tumor cells. […]

[9] = system: MOSs derived from renal tumor biopsies; assay: IO assay of renal tumor MOSs, Annexin V apoptosis marker; type: cell-based, human; conditions: MOSs from renal tumor biopsy
Method: IO assays of the MOSs for these pulmonary and renal tumor biopsies were prepared with an Annexin V marker to indicate cellular apoptosis. […] If this test were run on, for example, traditional bulk organoids, the results would not be meaningful (due to the lack of patient immune cells) leading to uncertainty in the best course of action for patient treatment, […]

CC(C)C[C@H](NC(=O)[C@H](Cc1ccccc1)NC(=O)c1cnccn1)B(O)O [Bortezoid]
response in the form of tumor cell apoptosis (Caspase 3/7 green dye) ([1]; MM MOSs on day 11, 2 nM): does not and not

CCc1c2c(nc3ccc(OC(=O)N4CCC(N5CCCCC5)CC4)cc13)-c1cc3c(c(=O)n1C2)COC(=O)[C@]3(O)CC [Irinotecan]
percent survival of the MOSs in the presence of the drug [2]: lack of effect
patient response (tumor [3]): no response

Nc1cccc2c1CN(C1CCC(=O)NC1=O)C2=O (centres unmarked) [Lenalidomide]
response in the form of tumor cell apoptosis (Caspase 3/7 green dye) ([1]; MM MOSs on day 11, 5 uM): good response
response in the form of tumor cell apoptosis (Caspase 3/7 green dye) ([1]; MM MOSs on day 11, 5 uM, listed as Lenalidomine): induces apoptosis

O=C1[O][Pt]2([NH][C@@H]3CCCC[C@H]3[NH]2)[O]C1=O [Oxaliplatin]
effect of drug on cell line (traditional cell line): no effect
cell survival from the tumor MOSs [4]: significant decreases in cell survival
tumor response to treatment (tumor [5]): responded to treatment
percent survival of the MOSs in the presence of the drug [2]: no change
patient response (tumor [3]): no response
drug response curves, bulk organoids compared with MOSs ([6]; listed as Oxalipalatin): comparable response

CCc1c2c(nc3ccc(O)cc13)-c1cc3c(c(=O)n1C2)COC(=O)[C@]3(O)CC [SN38, 7-Ethyl-10-hydroxy-camptothecin]
drug response curves, bulk organoids compared with MOSs [6]: comparable responses
drug response curves, bulk organoids compared with MOSs [7]: comparable responses

CC(=O)Nc1ccc(O)cc1 [acetaminophen]
tissue in the MOSs compared with control group (mouse liver MOSs): smaller and contains many dead cells
tissue in the treated MOSs compared with control group (human liver MOSs): significant increase atypical tissue structures (arrows) and debris

Nivolumab
response in the form of tumor cell apoptosis (Annexin V marker) [8]: induces apoptosis; also recorded: good response
response in the form of tumor cell apoptosis (Annexin V marker) [9]: induces apoptosis; also recorded: good response
